From patent publication US20080269170A1, “Novel 2,4-Dianilinopyrimidine Derivatives, the Preparation Thereof, Their Use as Medicaments, Pharmaceutical Compositions and, in Particular, as IKK Inhibitors” (sanofi-aventis, priority 2005, published 2008)

Structure (SMILES)	melting point
Cc1cc(Nc2ccnc(Nc3ccc(S(=O)(=O)N(C)C4CCCN(C)C4)cc3)n2)ccc1F (centres unmarked) [Example 139, 4-({4-[(4-Fluoro-3-methylphenyl)amino]-pyrimidin-2-yl}amino)-N-methyl-N-(1-methylpiperidin-3-yl)benzenesulfonamide]	188 °C
CN(C)C1CCC(N(C)S(=O)(=O)c2ccc(Nc3nccc(Nc4ccc(F)cc4)n3)cc2)CC1 (stereo not drawn) [Example 140, 4-({4-[(4-Fluorophenyl)amino]pyrimidin-2-yl}amino)-N-methyl-N-[4-cis(dimethylamino)cyclohexyl]-benzenesulfonamide]	222 °C
CN(C)C1CCC(N(C)S(=O)(=O)c2ccc(Nc3nccc(Nc4ccc(F)cc4)n3)cc2)CC1 (stereo not drawn) [Example 141, 4-({4-[(4-Fluorophenyl)amino]pyrimidin-2-yl}amino)-N-methyl-N-[4-trans(dimethylamino)cyclo-hexyl]benzenesulfonamide]	218 °C
CCNC1CCC(N(C)S(=O)(=O)c2ccc(Nc3nccc(Nc4ccc(F)cc4)n3)cc2)CC1 (stereo not drawn) [Example 142, 4-({4-[(4-Fluorophenyl)amino]pyrimidin-2-yl}amino)-N-methyl-N-[4-cis(ethylamino)cyclohexyl]-benzenesulfonamide]	188 °C
CCNC1CCC(N(C)S(=O)(=O)c2ccc(Nc3nccc(Nc4ccc(F)cc4)n3)cc2)CC1 (stereo not drawn) [Example 143, 4-({4-[(4-Fluorophenyl)amino]pyrimidin-2-yl}amino)-N-methyl-N-[4-trans(ethylamino)cyclohexyl]-benzenesulfonamide]	178 °C
CSCCNC1CCC(N(C)S(=O)(=O)c2ccc(Nc3nccc(Nc4ccc(F)cc4)n3)cc2)CC1 (stereo not drawn) [Example 144, 4-({4-[(4-Fluorophenyl)amino]pyrimidin-2-yl}amino)-N-methyl-N-[4-cis(2-methylsulfanylethyl-amino)cyclohexyl]benzenesulfonamide]	146 °C
CSCCNC1CCC(N(C)S(=O)(=O)c2ccc(Nc3nccc(Nc4ccc(F)cc4)n3)cc2)CC1 (stereo not drawn) [Example 145, 4-({4-[(4-Fluorophenyl)amino]pyrimidin-2-yl}amino)-N-methyl-N-[4-trans(2-methylsulfanylethyl-amino)cyclohexyl]benzenesulfonamide]	171 °C
CNC1CCC(N(CCN2CCCC2)S(=O)(=O)c2ccc(Nc3nccc(Nc4ccc(F)cc4)n3)cc2)CC1 (stereo not drawn) [Example 146, 4-({4-[(4-Fluorophenyl)amino]pyrimidin-2-yl}amino)-N-(4-cis(methylamino)cyclohexyl)-N-(2-pyrrolidin-1-ylethyl)benzenesulfonamide]	189 °C
CNC1CCC(N(CCN2CCCC2)S(=O)(=O)c2ccc(Nc3nccc(Nc4ccc(F)cc4)n3)cc2)CC1 (stereo not drawn) [Example 147, 4-({4-[(4-Fluorophenyl)amino]pyrimidin-2-yl}amino)-N-(4-trans(methylamino)cyclohexyl)-N-(2-pyr-rolidin-1-ylethyl)benzenesulfonamide]	128 °C
C#CCN(C1CCN(C)CC1)S(=O)(=O)c1ccc(Nc2nccc(Nc3ccc(F)cc3)n2)cc1 [Example 148, 4-({4-[(4-Fluorophenyl)amino]pyrimidin-2-yl}amino)-N-propargyl-N-(1-methylpiperidin-4-yl)-benzenesulfonamide]	187 °C
CCN(C1CCN(C)CC1)S(=O)(=O)c1ccc(Nc2nccc(Nc3ccc(F)cc3)n2)cc1 [Example 149, 4-({4-[(4-Fluorophenyl)amino]pyrimidin-2-yl}amino)-N-ethyl-N-(1-methylpiperidin-4-yl)benzene-sulfonamide]	154 °C
CN(C1CCN(C2CC2)CC1)S(=O)(=O)c1ccc(Nc2nccc(Nc3ccc(F)cc3)n2)cc1 [Example 150, N-(1-Cyclopropylpiperidin-4-yl)-4-({4-[(4-fluorophenyl)amino]pyrimidin-2-yl}amino)-N-methyl-benzenesulfonamide]	125 to 128 °C
CN1CCC(N(CC[C@H]2CCCN2)S(=O)(=O)c2ccc(Nc3nccc(Nc4ccc(F)cc4)n3)cc2)CC1 [Example 153, 4-({4-[(4-Fluorophenyl)amino]pyrimidin-2-yl}amino)-N-(1-methylpiperidin-4-yl)-N-{2-[(2R)-pyrrol-idin-2-yl]ethyl}benzenesulfonamide]	85 °C
COc1cc(Nc2ccnc(Nc3ccc(S(=O)(=O)N(CCN4CCCC4)C4CCN(C5CC5)CC4)cc3)n2)ccc1F [Example 156]	139 °C
CN1CCC(N(Cc2cccn2C)S(=O)(=O)c2ccc(Nc3nccc(Nc4ccc(F)cc4)n3)cc2)CC1 [Example 161, 4-({4-[(4-Fluorophenyl)amino]pyrimidin-2-yl}amino)-N-(1-methylpiperidin-4-yl)-N-[(1-methyl-1H-pyrrol-2-yl)methyl]benzenesulfonamide]	129 °C
CN1CCC(N(C)S(=O)(=O)c2ccc(Nc3nccc(Nc4cc(F)c(F)c(F)c4)n3)cc2)CC1 [Example 162, 4-[4-(3,4,5-Trifluorophenylamino)pyrimidin-2-ylamino]-N-methyl-N-(1-methylpiperidin-4-yl)benzenesulfonamide]	226.9 °C
CN(C1CCN(CCS(C)(=O)=O)CC1)S(=O)(=O)c1ccc(Nc2nccc(Nc3ccc(F)c(F)c3)n2)cc1 [Example 163, 4-({4-[(3,4-Difluorophenyl)amino]pyrimidin-2-yl}amino)-N-methyl-N-{1-[2-(methyl-sulfonyl)ethyl]piperidin-4-yl}benzenesulfonamide]	204 °C
CN(C1CCN(Cc2cccn2C)CC1)S(=O)(=O)c1ccc(Nc2nccc(Nc3ccc(F)c(F)c3)n2)cc1 [Example 164, 4-({4-[(3,4-Difluorophenyl)amino]pyrimidin-2-yl}amino)-N-methyl-N-{1-[(1-methyl-1H-pyrrol-2-yl)methyl]piperidin-4-yl)benzenesulfonamide]	149 to 152 °C
CN(C1CCN(Cc2csnn2)CC1)S(=O)(=O)c1ccc(Nc2nccc(Nc3ccc(F)c(F)c3)n2)cc1 [Example 165, 4-({4-[(3,4-Difluorophenyl)amino]pyrimidin-2-yl}amino)-N-methyl-N-(1-{[1-(1,2,3)thiadiazol-4-yl]methyl}piperidin-4-yl)benzenesulfonamide]	172 to 173 °C
Cc1cc(CN2CCC(N(C)S(=O)(=O)c3ccc(Nc4nccc(Nc5ccc(F)c(F)c5)n4)cc3)CC2)no1 [Example 166, 4-({4-[(3,4-Difluorophenyl)amino]pyrimidin-2-yl}amino)-N-methyl-N-{1-[(5-methylisoxazol-3-yl)methyl]piperidin-4-yl}benzenesulfonamide]	204 to 206 °C
CN(C1CCN(CC(C)(C)O)CC1)S(=O)(=O)c1ccc(Nc2nccc(Nc3ccc(F)c(F)c3)n2)cc1 [Example 167, 4-[4-(3,4-Difluorophenylamino)pyrimidin-2-ylamino]-N-[1-(2-hydroxy-2-methylpropyl)piperidin-4-yl]-N-methylbenzenesulfonamide]	234 to 235 °C
Cc1cc(Nc2ccnc(Nc3ccc(S(=O)(=O)N(Cc4ccco4)C4CCC(=O)CC4)cc3)n2)ccc1F [Example 168]	184 °C
Cc1cc(Nc2ccnc(Nc3ccc(S(=O)(=O)N(CC4CCCO4)C4CCC(=O)CC4)cc3)n2)ccc1F (centres unmarked) [Example 169]	189 °C
